The values below are quoted from earlier work in publication PMC2099433, “The binding site for neohesperidin dihydrochalcone at the human sweet taste receptor” (BMC Structural Biology, 2007).

Data set [1] concerns sweet taste. Details: method as in PMID 831282, PMID 14403185. The settings on record: cited from earlier work.
Data set [2] concerns sweet taste. Details: method as in PMID 10480680. The settings on record: humans; cited from earlier work.

As to `COc1ccc(CCC(=O)c2c(O)cc(O)cc2O)cc1O` [hesperitin dihydrochalcone], the taste entry in data set [1] is recorded as “tastes sweet”.
Consider `COc1ccc(OC(C)C(=O)O)cc1` (centres unmarked) [lactisole], for which the “inhibition of the sweet taste of NHDC” value in data set [2] is listed as “did not inhibit the sweet taste of NHDC”.
